The record followed here is patent US20180133331A1, “Site-Specific DNA-Doxorubicin Conjugates Display Enhanced Cytotoxicity to Breast Cancer Cells” (priority 2014, published 2018).

The data set has as its system Salmon Sperm DNA. The data set is described as follows: Dox transfer from DCH to salmon sperm DNA (fluorescence quenching, stability of Dox:hairpin conjugate). The data set is classed as physicochemical. The settings on record: 100-fold excess spDNA (w/w), 37° C. As to the method:
Dox transfer from DCH: Samples of 2.5 μM (approximately 2 μg in 100 uL) DCH, doxorubicin, or hairpin+doxorubicin were prepared in DPBS with or without a 100-fold by weight (200 μg) excess of Salmon Sperm DNA and incubated at 37° C. Fluorescence intensity was determined by Typhoon-9210 variable mode imager with excitation set to 532 nm and the emission filter at 610 nm.
Stability of Dox:Hairpin Conjugate. It was hypothesized that covalent binding of Dox would allow for the Dox-conjugated hairpin to serve as a delivery vehicle with improved pharmacological properties and reduced systemic toxicities relative to conventional Dox. In order for the hairpin to act as an efficient delivery vehicle, Dox must remain stably bound under physiological conditions, but also undergo intracellular release and transfer to genomic DNA. […] Using the difference in fluorescence between hairpin-bound Dox and Dox intercalated into DNA, the half-life of the Dox-hairpin bond was measured. An assay was developed to quantify the transfer of Dox from the hairpin to genomic DNA under physiologic conditions. This assay is based on the difference in fluorescence of Dox in the context of the hairpin conjugate relative to genomic DNA. […] Reactions were incubated at 37° C. with fluorescence quenching measured over 48 h. […]

For `COc1cccc2c1C(=O)c1c(O)c3c(c(O)c1C2=O)C[C@@](O)(C(=O)CO)C[C@@H]3O[C@H]1C[C@H](N)[C@H](O)[C@H](C)O1` [Dox, Doxorubicin], the “fluorescence quenching following addition of spDNA” value was “fully quenched within one hour”.
